Read-outs that look alike come from different tables or passages of the source.
Legend:
Assay in all cases: KinomeScan kinase panel, single concentration 10 µM
Type in all cases: binding
KinomeScan kinase panel [1] = biological target: T1, KinomeScan kinase panel (Homo sapiens, UniProt O94806); details: read-out: score (%)
T1 construct: purchased DiscoveRx (KinomeScan)
T1 sequence (O94806 1-890): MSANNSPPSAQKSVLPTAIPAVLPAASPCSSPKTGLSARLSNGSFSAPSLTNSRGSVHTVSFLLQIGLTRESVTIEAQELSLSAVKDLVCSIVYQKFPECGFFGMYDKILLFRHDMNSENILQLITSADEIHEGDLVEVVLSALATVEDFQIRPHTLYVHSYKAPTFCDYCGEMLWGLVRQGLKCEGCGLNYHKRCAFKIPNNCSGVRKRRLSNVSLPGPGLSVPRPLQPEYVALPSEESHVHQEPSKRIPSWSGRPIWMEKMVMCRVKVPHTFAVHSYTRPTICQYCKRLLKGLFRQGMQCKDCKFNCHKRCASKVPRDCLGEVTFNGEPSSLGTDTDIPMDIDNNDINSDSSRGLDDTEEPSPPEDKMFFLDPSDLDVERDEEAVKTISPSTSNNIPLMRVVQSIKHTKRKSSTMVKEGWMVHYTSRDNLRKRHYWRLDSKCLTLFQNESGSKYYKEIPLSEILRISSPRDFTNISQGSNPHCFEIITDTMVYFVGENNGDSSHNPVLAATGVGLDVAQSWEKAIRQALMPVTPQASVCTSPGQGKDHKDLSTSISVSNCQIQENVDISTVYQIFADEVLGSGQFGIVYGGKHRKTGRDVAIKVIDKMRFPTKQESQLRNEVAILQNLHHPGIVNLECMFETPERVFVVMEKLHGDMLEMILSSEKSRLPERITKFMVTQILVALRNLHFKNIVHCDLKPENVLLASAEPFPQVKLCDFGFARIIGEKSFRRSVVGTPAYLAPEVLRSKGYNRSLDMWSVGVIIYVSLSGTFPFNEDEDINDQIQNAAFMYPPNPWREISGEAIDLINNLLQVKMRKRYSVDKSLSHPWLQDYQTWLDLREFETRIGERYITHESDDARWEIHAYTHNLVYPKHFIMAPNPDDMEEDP

KinomeScan kinase panel [2] = biological target: T2, KinomeScan kinase panel (Homo sapiens, UniProt P22607); details: FGFR3, 10 µM; read-out: score (%)
T2 construct: purchased DiscoveRx (KinomeScan)
T2 sequence (P22607 23-806): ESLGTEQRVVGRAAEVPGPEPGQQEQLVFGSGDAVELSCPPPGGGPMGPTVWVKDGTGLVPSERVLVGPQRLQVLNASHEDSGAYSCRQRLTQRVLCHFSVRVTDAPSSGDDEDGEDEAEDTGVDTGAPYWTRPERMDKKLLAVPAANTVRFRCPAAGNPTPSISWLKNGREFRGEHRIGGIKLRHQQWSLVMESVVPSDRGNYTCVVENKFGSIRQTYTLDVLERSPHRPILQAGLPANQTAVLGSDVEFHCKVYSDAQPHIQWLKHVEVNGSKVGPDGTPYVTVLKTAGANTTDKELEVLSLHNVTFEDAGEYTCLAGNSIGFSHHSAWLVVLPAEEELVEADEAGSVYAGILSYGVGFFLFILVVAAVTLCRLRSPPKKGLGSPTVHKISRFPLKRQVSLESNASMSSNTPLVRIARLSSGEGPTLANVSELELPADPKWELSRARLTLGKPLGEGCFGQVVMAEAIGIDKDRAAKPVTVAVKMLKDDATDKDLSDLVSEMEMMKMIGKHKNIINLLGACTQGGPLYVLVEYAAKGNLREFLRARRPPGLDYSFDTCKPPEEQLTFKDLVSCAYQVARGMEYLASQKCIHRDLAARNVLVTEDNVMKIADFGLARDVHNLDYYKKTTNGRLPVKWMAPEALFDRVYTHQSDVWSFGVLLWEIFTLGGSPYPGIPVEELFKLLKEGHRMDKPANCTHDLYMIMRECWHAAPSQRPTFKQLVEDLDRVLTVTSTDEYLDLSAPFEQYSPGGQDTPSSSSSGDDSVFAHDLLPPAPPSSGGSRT

KinomeScan kinase panel [3] = biological target: T3, KinomeScan kinase panel (Homo sapiens, UniProt P36888, D835Y); details: FLT3(D835Y), 10 µM; read-out: score (%)
T3 construct: purchased DiscoveRx (KinomeScan)
T3 sequence (P36888 27-993 D835Y): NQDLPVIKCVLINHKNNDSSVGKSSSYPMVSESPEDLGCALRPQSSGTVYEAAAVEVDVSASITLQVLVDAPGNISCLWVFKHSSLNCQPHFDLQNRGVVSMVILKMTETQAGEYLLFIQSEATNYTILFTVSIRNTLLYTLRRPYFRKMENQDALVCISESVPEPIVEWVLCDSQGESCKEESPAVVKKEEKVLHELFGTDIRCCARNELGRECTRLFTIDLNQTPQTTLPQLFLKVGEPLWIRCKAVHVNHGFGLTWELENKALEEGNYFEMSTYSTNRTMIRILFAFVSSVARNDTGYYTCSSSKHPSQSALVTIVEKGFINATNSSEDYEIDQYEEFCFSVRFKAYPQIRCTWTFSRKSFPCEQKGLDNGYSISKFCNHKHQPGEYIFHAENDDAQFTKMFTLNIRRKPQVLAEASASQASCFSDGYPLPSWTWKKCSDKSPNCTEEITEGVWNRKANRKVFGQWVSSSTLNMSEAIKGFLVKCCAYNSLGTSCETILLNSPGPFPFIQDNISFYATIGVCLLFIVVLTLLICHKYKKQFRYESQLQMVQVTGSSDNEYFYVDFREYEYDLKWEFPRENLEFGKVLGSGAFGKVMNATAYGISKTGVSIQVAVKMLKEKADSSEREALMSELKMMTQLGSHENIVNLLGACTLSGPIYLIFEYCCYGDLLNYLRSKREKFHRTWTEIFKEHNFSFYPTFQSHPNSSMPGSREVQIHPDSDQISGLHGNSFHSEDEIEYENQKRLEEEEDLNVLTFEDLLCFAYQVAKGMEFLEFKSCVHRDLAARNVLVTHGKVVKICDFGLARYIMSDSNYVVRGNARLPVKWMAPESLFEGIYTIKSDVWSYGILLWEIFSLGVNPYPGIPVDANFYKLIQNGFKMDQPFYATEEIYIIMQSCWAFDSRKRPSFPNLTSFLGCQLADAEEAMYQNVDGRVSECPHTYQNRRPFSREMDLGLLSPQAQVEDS

KinomeScan kinase panel [4] = biological target: T4, KinomeScan kinase panel (Homo sapiens, UniProt Q6P3R8); details: NEK5, 10 µM; read-out: score (%)
T4 construct: purchased DiscoveRx (KinomeScan)
T4 sequence (Q6P3R8 1-708): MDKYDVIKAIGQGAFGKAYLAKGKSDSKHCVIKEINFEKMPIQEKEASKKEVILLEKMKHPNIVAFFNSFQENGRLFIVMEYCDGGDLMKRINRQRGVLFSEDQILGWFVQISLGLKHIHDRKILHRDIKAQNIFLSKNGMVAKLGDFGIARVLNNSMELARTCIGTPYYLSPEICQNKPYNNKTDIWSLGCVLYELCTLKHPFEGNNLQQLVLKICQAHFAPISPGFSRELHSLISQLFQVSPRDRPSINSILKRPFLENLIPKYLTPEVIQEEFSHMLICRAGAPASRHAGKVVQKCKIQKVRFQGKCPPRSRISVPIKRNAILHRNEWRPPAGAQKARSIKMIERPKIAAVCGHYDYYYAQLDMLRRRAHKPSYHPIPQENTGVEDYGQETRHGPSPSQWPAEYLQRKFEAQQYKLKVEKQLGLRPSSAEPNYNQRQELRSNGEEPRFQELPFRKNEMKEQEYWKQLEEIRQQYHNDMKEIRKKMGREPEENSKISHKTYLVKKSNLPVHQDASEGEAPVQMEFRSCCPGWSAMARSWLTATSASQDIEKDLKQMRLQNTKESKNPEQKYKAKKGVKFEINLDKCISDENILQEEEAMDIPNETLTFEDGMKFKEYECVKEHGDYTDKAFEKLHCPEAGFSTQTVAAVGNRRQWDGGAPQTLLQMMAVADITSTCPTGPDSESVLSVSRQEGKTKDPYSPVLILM

In the case of `CCN1CCN(Cc2ccc(NC(=O)c3ccc(C)c(NC(=O)c4cncc(-c5cccs5)c4)c3)cc2C(F)(F)F)CC1` [ALW-II-41-27], the remaining binding at 10 µM (KinomeScan kinase panel [1]; PRKD3, 10 µM) is reported as greater than 30%, the remaining binding at 10 µM (KinomeScan kinase panel [2]) is reported as greater than 30% and the remaining binding at 10 µM (KinomeScan kinase panel [3]) is reported as 3.3%. It also gave a remaining binding at 10 µM (KinomeScan kinase panel [4]) greater than 30%.
For `CCN1CCN(Cc2ccc(NC(=O)c3ccc(C)c(/C=C/c4cnc5[nH]ccc5c4Cl)c3)cc2C(F)(F)F)CC1` [HG-6-63-01, (E)-3-(2-(4-chloro-1H-pyrrolo[2,3-b]pyridin-5-yl)vinyl)-N-(4-((4-ethylpiperazin-1-yl)methyl)-3-(trifluoromethyl)phenyl)-4-methylbenzamide], the remaining binding at 10 µM (KinomeScan kinase panel [1]; PRKD3, 10 µM) was greater than 30%, the remaining binding at 10 µM (KinomeScan kinase panel [2]) was 2.4% and the remaining binding at 10 µM (KinomeScan kinase panel [3]) was 0.85%. It also gave a remaining binding at 10 µM (KinomeScan kinase panel [4]) of 7%.
`CCN1CCN(Cc2ccc(NC(=O)c3ccc(C)c(C#Cc4cccnc4)c3)cc2C(F)(F)F)CC1` [XMD15-44] was tested, and the remaining binding at 10 µM (KinomeScan kinase panel [1]; kinase PRKD3, 10 µM) was 22%, the remaining binding at 10 µM (KinomeScan kinase panel [2]) was 0.3% and the remaining binding at 10 µM (KinomeScan kinase panel [3]) was 0.5%. For the same compound, the remaining binding at 10 µM (KinomeScan kinase panel [4]) was 4.8%.
